Among the data in PubChem BioAssay (NCI) are GI50 and TGI values, retold here.

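Each compound was tested at five concentrations against cells in 96-well plates for 48 hours. The concentration for 50% growth inhibition is given as GI50. The concentration for full growth arrest is given as TGI.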

Test systems include PC-3 prostate; HL-60(TB) leukemia; OVCAR-4 ovarian; SF-268 CNS; MDA-MB-231 breast; NCI-H226 lung; RXF 393 renal; SK-OV-3 ovarian; HOP-92 NSCLC; SK-MEL-5 melanoma.
Holding throughout (test): NCI anticancer screen, dose series, 48 h

On to `Cc1ccc(Cl)cc1-n1c(C)nc2c(cnn2-c2ccnc3c(C(F)(F)F)cccc23)c1=O`, for which the GI50 was above 100 µM in the assay with PC-3 prostate; above 100 µM in the assay on HL-60(TB) leukemia; above 100 µM in the assay on OVCAR-4 ovarian; above 100 µM in the assay with SF-268 CNS; above 100 µM in the assay on MDA-MB-231 breast; above 100000 nM in the assay with NCI-H226 lung. Besides, the GI50 in the assay on RXF 393 renal was above 100000 nM; in the assay on SK-OV-3 ovarian, above 100 µM; with HOP-92 NSCLC it was above 100 µM; in the assay on SK-MEL-5 melanoma, above 100 µM. Further, the TGI with PC-3 prostate, with HL-60(TB) leukemia, in the assay on OVCAR-4 ovarian, in the assay on SF-268 CNS, with MDA-MB-231 breast and in the assay with NCI-H226 lung was above 100 µM throughout. Also, the TGI with RXF 393 renal, in the assay on SK-OV-3 ovarian, with HOP-92 NSCLC and in the assay with SK-MEL-5 melanoma was above 100 µM throughout.

As to `O=C1/C(=C/c2ccccc2[N+](=O)[O-])COc2ccc(O)cc21`, the GI50 is 2.01 µM in the assay with PC-3 prostate; 1.76 µM with HL-60(TB) leukemia; 1.9 µM in the assay on OVCAR-4 ovarian; 2.4 µM in the assay on SF-268 CNS; 1.77 µM in the assay with MDA-MB-231 breast; 2400 nM in the assay with NCI-H226 lung. Besides, the GI50 with RXF 393 renal was 1230 nM; with SK-OV-3 ovarian it was 5.25 µM; in the assay with HOP-92 NSCLC it was 2.75 µM; in the assay on SK-MEL-5 melanoma, 1.76 µM. Besides, the TGI is 10.8 µM with PC-3 prostate; 5.68 µM in the assay on HL-60(TB) leukemia; 8.63 µM in the assay on OVCAR-4 ovarian; 7.97 µM in the assay with SF-268 CNS; 3.69 µM in the assay with MDA-MB-231 breast; 10.9 µM in the assay with NCI-H226 lung. In addition, the TGI in the assay with RXF 393 renal came to 3.02 µM; in the assay on SK-OV-3 ovarian, 17.6 µM; with HOP-92 NSCLC, 12.5 µM; with SK-MEL-5 melanoma, 4.07 µM.

For `Cn1c(C(=O)c2cccc3ccccc23)nc2ccccc21`, the GI50 in the assay on PC-3 prostate is above 100 µM; in the assay with HL-60(TB) leukemia it was above 100 µM; with OVCAR-4 ovarian, 35.1 µM; in the assay with SF-268 CNS, above 100 µM; with MDA-MB-231 breast, above 100 µM; in the assay with NCI-H226 lung, above 100000 nM. Also, the GI50 was above 100000 nM in the assay on RXF 393 renal, above 100 µM in the assay with SK-OV-3 ovarian, 35.9 µM in the assay with HOP-92 NSCLC and above 100 µM in the assay with SK-MEL-5 melanoma. For the same molecule, the TGI in the assay on PC-3 prostate, in the assay on HL-60(TB) leukemia, with OVCAR-4 ovarian, in the assay with SF-268 CNS, in the assay with MDA-MB-231 breast and in the assay with NCI-H226 lung was above 100 µM each time. Further, the TGI in the assay on RXF 393 renal, with SK-OV-3 ovarian, with HOP-92 NSCLC and in the assay with SK-MEL-5 melanoma was above 100 µM each time.

As to `Nc1nc(-c2ccc(Cl)cc2)nc2c1sc(=S)n2-c1ccccc1`, the GI50 is 17.3 µM in the assay with PC-3 prostate; above 100 µM with HL-60(TB) leukemia; 1.95 µM in the assay on OVCAR-4 ovarian; 3.75 µM in the assay with SF-268 CNS; 3.44 µM in the assay with MDA-MB-231 breast; 2780 nM in the assay with NCI-H226 lung. Besides, the GI50 is 2510 nM in the assay on RXF 393 renal, 3.83 µM in the assay on SK-OV-3 ovarian, 2.37 µM in the assay with HOP-92 NSCLC and 2.91 µM in the assay with SK-MEL-5 melanoma. The TGI is above 100 µM in the assay on PC-3 prostate; above 100 µM with HL-60(TB) leukemia; 4.57 µM in the assay on OVCAR-4 ovarian; 20.2 µM in the assay with SF-268 CNS; 10.6 µM in the assay with MDA-MB-231 breast; 6.73 µM with NCI-H226 lung. In addition, the TGI was 6.19 µM with RXF 393 renal, 14.5 µM with SK-OV-3 ovarian, 6.25 µM in the assay with HOP-92 NSCLC and 10.1 µM in the assay with SK-MEL-5 melanoma.

For `Fc1ccc2nc(-c3nc(-c4ccccc4)n4ccccc34)[nH]c2c1`, the GI50 with PC-3 prostate was 1.82 µM; in the assay with HL-60(TB) leukemia it was 14.9 µM; in the assay with OVCAR-4 ovarian it was 1.93 µM; in the assay with SF-268 CNS it was 3.29 µM; with MDA-MB-231 breast, 2.45 µM; with NCI-H226 lung, 1800 nM. Further, the GI50 was 2990 nM in the assay on RXF 393 renal, 2.4 µM in the assay with SK-OV-3 ovarian, 1.73 µM with HOP-92 NSCLC and 1.55 µM with SK-MEL-5 melanoma. Besides, the TGI in the assay with PC-3 prostate was 4.24 µM; with HL-60(TB) leukemia it was above 100 µM; in the assay with OVCAR-4 ovarian, 6.31 µM; with SF-268 CNS, 9.96 µM; in the assay on MDA-MB-231 breast, 10.7 µM; in the assay on NCI-H226 lung it was 5.8 µM. In addition, the TGI in the assay with RXF 393 renal came out at 10.2 µM; in the assay with SK-OV-3 ovarian, 5.26 µM; in the assay on HOP-92 NSCLC, 6.42 µM; in the assay with SK-MEL-5 melanoma, 3.49 µM.

In the case of `N#Cc1cccc(Nc2ncc(-c3ccccc3)o2)c1`, the GI50 with PC-3 prostate is 15.1 µM; in the assay with HL-60(TB) leukemia, 11 µM; with OVCAR-4 ovarian, 10.9 µM; with SF-268 CNS, 17.3 µM; in the assay with MDA-MB-231 breast it was 8.38 µM; in the assay on NCI-H226 lung, 8650 nM. Also, the GI50 is 5550 nM in the assay with RXF 393 renal, 8.4 µM in the assay on SK-OV-3 ovarian, 7.32 µM in the assay on HOP-92 NSCLC and 13 µM in the assay on SK-MEL-5 melanoma. The TGI with PC-3 prostate, in the assay with HL-60(TB) leukemia, in the assay with OVCAR-4 ovarian, with SF-268 CNS, in the assay with MDA-MB-231 breast and in the assay on NCI-H226 lung was above 25 µM each time. Moreover, the TGI with RXF 393 renal is 15.8 µM; with SK-OV-3 ovarian, 19.6 µM; with HOP-92 NSCLC it was above 25 µM; in the assay with SK-MEL-5 melanoma, above 25 µM.

`O=S(=O)(O)c1ccc2cc3nn(-c4ccc(/C=C/c5ccc(-n6nc7cc8ccc(S(=O)(=O)O)cc8cc7n6)cc5S(=O)(=O)O)c(S(=O)(=O)O)c4)nc3cc2c1`: the GI50 with PC-3 prostate was 74.7 µM; in the assay on HL-60(TB) leukemia it was 31.9 µM; in the assay on OVCAR-4 ovarian, above 100 µM; in the assay with SF-268 CNS, above 100 µM; in the assay with MDA-MB-231 breast, 37 µM; in the assay with NCI-H226 lung it was above 100000 nM. The GI50 is above 100000 nM in the assay on RXF 393 renal, above 100 µM with SK-OV-3 ovarian, 88.7 µM in the assay on HOP-92 NSCLC and 94.7 µM in the assay on SK-MEL-5 melanoma. Also, the TGI in the assay on PC-3 prostate, with HL-60(TB) leukemia, with OVCAR-4 ovarian, in the assay on SF-268 CNS, in the assay with MDA-MB-231 breast and in the assay with NCI-H226 lung was above 100 µM throughout. Moreover, the TGI with RXF 393 renal, in the assay with SK-OV-3 ovarian, with HOP-92 NSCLC and with SK-MEL-5 melanoma was above 100 µM each time.
